Patent EP4289427A1, “DIHYDRO[1,8]NAPHTHYRIDIN-7-ONE AND PYRIDO[3,2-B][1,4]OXAZIN-3-ONE FOR USE IN TREATING CANCER, AND METASTASES IN PARTICULAR” (Anagenesis Biotechnologies, priority 2022, dated 2023)

Assays:
RD cells [1] = assay: Differentiation of RD cells into myotubes (alpha-actinin staining); type: cell-based, Human; settings: 7 days, Figure 3
Description: RD cells are cancer cells of muscle origin that arose from myogenic precursors that fail to complete muscle differentiation. One strategy to stop their progression is to differentiate them into myotubes.
To allow differentiation, RD cells were seeded at a density of 3500 cells/well in a 384-well plate coated with collagen type I, in DMEM (4,5g/L glucose) with L-Gln (cat.no. 41965-039 from Gibco) supplemented with 5% of knockout serum replacement (cat.no. 10828-028 from Gibco), 1% PenStrep (Gibco), 1% MEM NEAA (Gibco) and 0.1 mM 2-mercaptoethanol (Gibco) (hereafter "K5 medium"). Compounds to be tested were then added onto the cells and incubated for 7 days at 37°C. On day 7, cells were fixed with 4% paraformaldehyde solution and immunostained for α-actinin (cat.no. EA-53 from Sigma, at 1/30000).

EoL-1 cells = assay: Cytotoxicity assay (CellTiter-Glo 2.0) on EoL-1 cells; type: cell-based, Human; settings: incubation 1 day; for IC50: Homo sapiens, EOL1, 24 h
In short: (§1)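 Luminescent quantification of ATP from metabolically active cells, 10 min after CellTiter-Glo 2.0 addition at room temperature, served as the viability measure. Compound incubation length and seeding density depended on the cell line. Values are relative IC50.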

RD cells [2] = assay: Cytotoxicity assay (CellTiter-Glo 2.0) on RD cells; type: cell-based, Human; settings: for IC50: Homo sapiens
In short: as §1

MDA-MB-231 cells [3] = assay: Scratch (wound healing) assay, cell migration; type: cell-based, Human; settings: 24 hours, Figure 1
Description: Cell migration is involved in several pathological cancer processes such as tumor invasion, neoangiogenesis and metastasis. Scratch (or wound healing) assay is a method to study two-dimensional cell migration in vitro. It is based on the observation that cells growing in a monolayer migrate to reestablish cell contacts after a mechanical scratch wound.
The MDA-MB-231 cells were seeded into a 24-well plate and grown to confluent density. A scrape was made in each well using a pipette tip. Then, the cells monolayers were incubated for 2 hours with 5 µg/ml mitomycin C to stop cell proliferation. The cells were treated with the compounds to be tested for 24 hours. The cells were stained using CellMask Green actin tracking stain (cat.no. A57246 from Fisher Scientific) at time zero and at endpoint. Pictures were acquired using a fluorescence microscope (IXM from Molecular Device). The scratch area was measured with the ImageJ software. The recovery of the scratch area was calculated as a percentage of the scratch area at time zero.

HUVECs = assay: Tube formation assay (anti-angiogenic activity); type: cell-based, human; settings: incubation 16 to 18 hours; for IC50: Homo sapiens, HUVEC
In short: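 HUVECs plated at 5000 cells/well on reduced growth factor basement membrane matrix, then exposed to compounds for 16 to 18 hours at 37°C. Cells stained with calcein-AM; tube networks imaged by confocal fluorescence microscopy and quantified.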

4T1 cells [4] = assay: Colony forming (clonogenic) assay; type: cell-based, Mouse; settings: 6 days of treatment, Figure 2
Description: Cancer stem cells are characterized by their ability to undergo virtually unlimited divisions. Colony forming assay (or clonogenic assay) is an in vitro assay designed to assess capability of single cells to grow into large colonies through clonal expansion.
4T1 cells were seeded at a density of 500 cells per well of six-well plates in 4T1 medium. Compounds to be tested were added 24 hours after seeding. After 6 days of treatment, the cells were fixed in 4% PFA and stained with 1% aqueous solution of crystal violet. Pictures of the entire wells were acquired, and the area of the positives colonies was evaluated by ImageJ software (Wayne Rasband; NIH).

4T1 cells [5] = assay: Epithelial-mesenchymal transition marker expression by qRT-PCR; type: cell-based, Mouse; set-up: key: ↗: increased expression; ↘: decreased expression; =: unchanged expression levels; settings: 24 hours, expression normalized against RPL13
Source text: The epithelial-mesenchymal transition (hereafter "EMT") is a process by which epithelial cells lose their cell polarity and cell-cell adhesion while gaining migratory and invasive properties to become mesenchymal stem cells. EMT is commonly measured by quantifying both epithelial and mesenchymal marker's expression by quantitative reverse-transcription polymerase chain reaction (hereafter "qRT-PCR"). EMT inhibition is observed when epithelial markers are stable or increased while mesenchymal markers are decreased.
4T1 cells were treated with compounds to be tested or DMSO for 24 hours. 4T1 cells were then harvested directly in NucleoZol lysis buffer (cat. no. 740404.200 from Macherey-Nagel), according to the manufacturer's instructions. Total RNA was extracted using the NucleoSpin RNA set for NucleoZol (cat. no. 740406.50 from Macherey-Nagel). The quantity and purity of RNA was determined using a Quickdrop (Molecular Devices). RT-PCR was performed on 500 ng total RNA using iScript gDNA clear cDNA synthesis Kit (cat.no. 1725035 from Biorad). The qPCR was run on a QuantStudio 5 real time thermocycler (Applied Biosystems), with PowerUp SYBR Green Master Mix (cat.no. A25742 from Fisher Scientific) and the primers listed in Table 16.
Expression data of EMT markers have been normalized against expression data of the housekeeping gene RPL13.

4T1 cells [6] = assay: Cytotoxicity assay (CellTiter-Glo 2.0) on 4T1 cells; type: cell-based, Mouse; settings: incubation 2 days; for IC50: Mus musculus, 48 h
In short: as §1

MDA-MB-231 cells [7] = assay: Cytotoxicity assay (CellTiter-Glo 2.0) on MDA-MB-231 cells; type: cell-based, Human; settings: incubation 3 days; for IC50: Homo sapiens, 72 h
In short: as §1

HEC-1A = assay: Cytotoxicity assay on KRAS mutated HEC-1A cells; type: cell-based, Human; settings: incubation 2 days
Description: (§2) Cytotoxicity assays consist in treating cells with compounds and assessing remaining viability after a defined incubation time, depending on the cell line. CellTiter-Glo® 2.0 reagent allows viability measurement by quantification of ATP present, which is an indicator of metabolically active cells.
(§3) The cancer cell lines were cultivated in their respective growth medium (see tables 6a and 6b). On day 0 of the cytotoxicity assay, the cells were harvested and seeded into a 384-well plate at a defined density in their respective growth medium (see tables 6a and 6b). Compounds to be tested were then added onto the cells and incubated for a defined duration (see tables 6a and 6b). Following incubation, CellTiter-Glo® 2.0 reagent (cat.no. G9241 from Promega) was added into the wells (vol/vol, according to the manufacturer's recommendations), plates were gently shaken and incubated for 10 minutes in the dark at room temperature. Bioluminescence was then measured with a multimode plate reader (Victor Nivo from Perkin Elmer), and cell viability and relative IC50 were determined. Table 6a: Cancer cell characteristics, culture and cytotoxic assay conditions

HCT116 = assay: Cytotoxicity assay on KRAS mutated HCT116 cells; type: cell-based, Human; settings: incubation 2 days
Description: as §2, §3

RPMI 8226 = assay: Cytotoxicity assay on KRAS mutated RPMI 8226 cells; type: cell-based, Human; settings: RPMI 8226, KRAS mutated, incubation 2 days
Description: as §2, §3

PSN1 = assay: Cytotoxicity assay on KRAS mutated PSN1 cells; type: cell-based, Human; settings: incubation 2 days
Description: as §2, §3

SW480 = assay: Cytotoxicity assay on KRAS mutated SW480 cells; type: cell-based, Human; settings: incubation 2 days
Description: as §2, §3

Mia PaCa-2 = assay: Cytotoxicity assay on KRAS mutated Mia PaCa-2 cells; type: cell-based, Human; settings: Mia PaCa-2, KRAS mutated, incubation 2 days
Description: as §2, §3

A549 = assay: Cytotoxicity assay on KRAS mutated A549 cells; type: cell-based, Human; settings: incubation 2 days
Description: as §2, §3

Row | SMILES | IC50 (EoL-1 cells) | Cytotoxicity (EoL-1 cells) | Cytotoxicity (RD cells [2]; 2 day-treatment) | Cytotoxicity (RD cells [2]; 4 day-treatment) | IC50 (RD cells [2]; 48 h, 2 day-treatment) | IC50 (RD cells [2]; 96 h, 4 day-treatment) | migration in the scratch assay (MDA-MB-231 cells [3]) | IC50 (HUVECs) | Angiogenesis inhibition (HUVECs) | colony growth (4T1 cells [4]) | Epithelial markers E-cadherin (4T1 cells [5]) | Epithelial markers EpCAM (4T1 cells [5]) | Mesenchymal markers Fibronectin (4T1 cells [5]) | Mesenchymal markers Vimentin (4T1 cells [5]) | IC50 (4T1 cells [6]) | Cytotoxicity (4T1 cells [6]) | IC50 (MDA-MB-231 cells [7]) | Cytotoxicity (MDA-MB-231 cells [7]) | further results
1 | CSc1cc(Oc2ccnc3c2OCC(=O)N3)ccc1NC(=O)Nc1cc(C(C)(C)C)nn1-c1ccccc1 [Compound 006, 1-(3-(tert-butyl)-1-phenyl-1H-pyrazol-5-yl)-3-(2-(methylthio)-4-((3-oxo-3,4-dihydro-2H-pyrido[3,2-b][1,4]oxazin-8-yl)oxy)phenyl)urea] | 10 to 100 nM | +++ (cytotoxicity ≥ 85%) | ++ (50% ≤ cytotoxicity < 85%) | ++ (50% ≤ cytotoxicity < 85%) | 1000 to 5000 nM | 1000 to 5000 nM | inhibition of their migration | 100 to 500 nM | +++ (angiogenesis inhibition ≥ 80%) | inhibition of colony growth | ↗ | ↗ | ↘ | ↘ | 1000 to 5000 nM | +++ (cytotoxicity ≥ 85%) | 1000 to 5000 nM | ++ (50% ≤ cytotoxicity < 85%) | differentiation into myotubes (RD cells [1]): dose-dependent differentiation into myotubes
2 | Cc1ccc(-n2nc(C(C)(C)C)cc2NC(=O)Nc2ccc(Oc3ccnc4c3CCC(=O)N4)cc2C(F)(F)F)cn1 [Compound 017, 1-[5-tert-butyl-2-(6-methyl-3-pyridyl)pyrazol-3-yl]-3-[4-[(7-oxo-6,8-dihydro-5H-1,8-naphthyridin-4-yl)oxy]-2-(trifluoromethyl)phenyl]urea] | 1 to 10 nM | ++ (50% ≤ cytotoxicity < 85%) | ++ (50% ≤ cytotoxicity < 85%) | +++ (cytotoxicity ≥ 85%) | 1000 to 5000 nM | 1000 to 5000 nM | inhibition of their migration | < 100 nM | +++ (angiogenesis inhibition ≥ 80%) | inhibition of colony growth | ↗ | ↗ | ↘ | ↘ | < 1000 nM | +++ (cytotoxicity ≥ 85%) | 1000 to 5000 nM | ++ (50% ≤ cytotoxicity < 85%) | 
3 | CSc1cc(Oc2ccnc3c2OCC(=O)N3)ccc1NC(=O)Nc1cc(C(C)(C)C)no1 [Compound 020, 1-(3-tert-butylisoxazol-5-yl)-3-[2-methylsulfanyl-4-[(3-oxo-4H-pyrido[3,2-b][1,4]oxazin-8-yl)oxy]phenyl]urea] | < 1 nM | +++ (cytotoxicity ≥ 85%) | ++ (50% ≤ cytotoxicity < 85%) | ++ (50% ≤ cytotoxicity < 85%) | 1000 to 5000 nM | < 1000 nM |  | < 100 nM | +++ (angiogenesis inhibition ≥ 80%) |  | ↗ | = | ↘ | ↘ | 1000 to 5000 nM | +++ (cytotoxicity ≥ 85%) | < 1000 nM | ++ (50% ≤ cytotoxicity < 85%) | IC50 (HEC-1A; Homo sapiens, 48 h): < 1000 nM; Cytotoxicity (HEC-1A): ++ (50% ≤ cytotoxicity < 85%); IC50 (HCT116; Homo sapiens, HCT-116, 48 h): < 1000 nM; Cytotoxicity (HCT116): +++ (cytotoxicity ≥ 85%); IC50 (RPMI 8226; Homo sapiens, 48 h): < 1000 nM; Cytotoxicity (RPMI 8226): ++ (50% ≤ cytotoxicity < 85%); IC50 (PSN1; Homo sapiens, 48 h): < 1000 nM; Cytotoxicity (PSN1): +++ (cytotoxicity ≥ 85%); IC50 (SW480; Homo sapiens, 48 h): < 1000 nM; Cytotoxicity (SW480): ++ (50% ≤ cytotoxicity < 85%); IC50 (Mia PaCa-2; Homo sapiens, 48 h): < 1000 nM; Cytotoxicity (Mia PaCa-2): +++ (cytotoxicity ≥ 85%); IC50 (A549; Homo sapiens, 48 h): < 1000 nM; Cytotoxicity (A549): ++ (50% ≤ cytotoxicity < 85%)
